Reference: article PMC4189421, “Induction of Oligodendrocyte Differentiation and In Vitro Myelination by Inhibition of Rho-Associated Kinase” (ASN NEURO, 2014)

Tests used:
[1] = tested on: mouse neurosphere-derived oligodendrocyte precursor cells (Nph-OPCs); assay: Morphology-based OPC differentiation assay (branches, outgrowth; high-content imaging); format: cell-based; details: Mus musculus, Oligodendrocyte precursor cell, 72 h, read-out: IC50, generation of branches in OPC differentiation assay
Method: (§1) Neurospheres (Nph) were prepared from embryos at 14.5 days of gestation obtained from timed pregnant females of C57/Bl6 mice, as previously described ([Kornblum, Yanni, Easterday, & Seroogy, 2000]; [Pedraza, Monk, Lei, Hao, & Macklin, 2008]). In brief, after separation of meninges and cerebellum, cerebrum tissue was mechanically triturated with a 1-ml micropipette until total tissue dissociation was achieved, filtered through a 70 -µm cell strainer (Fisher Scientific, Pittsburgh, PA), and plated in 25-cm^2 plastic culture flasks (2 brains/flask). Nph proliferation media (NPM) consisted of Dulbecco’s Modified Eagle Medium (DMEM)/F12, B27 neuronal supplement (Gibco, Baltimore, MD) and 10 ng/ml […] (EGF; Sigma, St. Louis, MO). After 48 to 72 hr, floating Nphs were passaged at a 1 : 1 ratio into 75-cm^2 culture flasks. After a further 48 to 72 hr, they were passaged into 150-cm^2 flasks. Subsequent passages were performed every 3 to 4 days at a ratio of 1 : 2 or 1 : 3 in the same media, and Nph were used to generate OPCs for no more than 12 passages.
OPCs were generated by chemical disaggregation of Nph with a mouse neural progenitor dissociation kit following the manufacturer instructions (NeuroCult, StemCell Technologies, AB, Canada). The single-cell suspension was then filtered through a 40 -µm cell strainer and plated on poly-D-lysine (PDL)-coated plates. […]
To determine the effects of ROCK inhibition on OPCs, we developed a high-content image morphological analysis of OPC differentiation using mouse embryonic neural progenitor-derived OPCs (Nph-OPCs). […] Four images per well were analyzed using a neurite outgrowth module (Molecular Devices, Sunnyvale, CA). We quantified the number of branches and total outgrowth per cell (Figure 1). […] Additionally, nuclear staining by Hoechst allowed the accurate association of branches and processes to their corresponding cell bodies and permitted quantification of total cell numbers in each well.

mouse Nph-OPCs = assay: Cell proliferation as number of Hoechst-labeled nuclei; format: cell-based; details: 1 µM; n = 3 in triplicate wells; DMSO: 522 ± 126
Description: To determine the effects of ROCK inhibition on OPCs, we developed a high-content image morphological analysis of OPC differentiation using mouse embryonic neural progenitor-derived OPCs (Nph-OPCs). Neural progenitors grow as nonadherent spheroids known as neurospheres (Nph; [Chojnacki & Weiss, 2008]; [Tropepe et al., 1999]), which are considered to be a mixed population of neural stem cells and progenitors of the CNS ([Rao, 1999]; [Zhou & Chiang, 1998]). These cells have been previously used in multiple published studies for the generation of high-yield, high-purity cultures of OPCs from rodents ([Calaora et al., 2001]; [[…] al., 1997]; [Pedraza et al., 2008]). After 24 hr of plating on PDL-coated tissue culture plastic, Nph-OPCs were treated as indicated with differentiation stimuli and further incubated for 72 hr. […] Four images per well were analyzed using a neurite outgrowth module (Molecular Devices, Sunnyvale, CA). We quantified the number of branches and total outgrowth per cell (Figure 1). […] Additionally, nuclear staining by Hoechst allowed the accurate association of branches and processes to their corresponding cell bodies and permitted quantification of total cell numbers in each well. […]

[2] = tested on: MYPT1 phosphorylation in mNph-OPC; assay: MYPT1 phosphorylation (sandwich ELISA, western blot) as ROCK target engagement; details: for Decrease of MYPT1 phosphorylation (ELISA): 4-hr mNph-OPC treatment
Method: Tris-glycine acrylamide-bysacrylamide gradient gel electrophoresis was performed as follows: After washing the cells with ice-cold PBS, protein lysates were made by adding 50 µl of PhosphoSafe extraction reagent (EMD Millipore) supplemented with antiprotease cocktail (cOmplete; Roche, Branford, CT) onto each 100-mm^2 cell culture plate. After detaching the cells with the help of a cell scraper and disrupting cell membranes by sonication, the protein extracts were centrifuged (10,000 g, 10 min, 4℃) and the supernatants separated. Protein content was measured by the BCA protein determination method (Biorad, Hercules, CA), and 30 µg of total protein was mixed with SDS sample buffer (Laemmli) supplemented with 1% β-mercaptoethanol. After heating the samples to 70℃ for 10 min, they were loaded onto 4% to 20% acryl-bysacrylamide gradient gels, and electrophoresis was carried out at 120 volts with constant amperage.
Resolved proteins were then transferred onto nitrocellulose membranes using the iBlot methodology and device (Life technologies). […] Secondary detection was performed using Li-Cor IRDye secondary anti-mouse and anti-rabbit antibodies, and near-infrared signal was detected by Li-Cor’s Odyssey imaging system.
We assessed MYPT1 phosphorylation in Nph-OPCs treated for 4 hr with ROCK inhibitors in a dose-response experiment and using a sandwich ELISA as a measuring method (MBL International).

mouse-derived OPCs = assay: Myelin protein mRNA expression in mouse-derived OPCs (qPCR); format: cell-based; details: mouse-derived OPCs exposed for 4 days
Method: as §1, with “Subsequent passages were performed every 3 to 4 days at a ratio of 1 : 2 or 1 : 3 in the same media, and Nph were used to generate OPCs for no more than 12 passages.” left out
Total RNA was isolated from single-cell cultures or tissue explants using Tri-Zol reagent (Gibco). cDNA was generated from 1 to 3 µg of total RNA by Retrotranscriptase II (Gibco) reaction, and the selected transcripts were detected and amplified by quantitative RT-PCR in an Applied Biosystems (Grand Island, NY) 7500 fast qPCR machine, following the manufacturer’s instructions. […]

## C[C@@H](N)[C@H]1CC[C@H](C(=O)Nc2ccncc2)CC1.Cl.Cl [Y0503, trans-4-[(1 R)-1-aminoethyl]-N-4-pyridinylcyclohexanecarboxamide dihydrochloride]
[1]
  IC50: 2700 nM
Mouse Nph-OPCs
  Number of Hoechst-labeled nuclei: 625 ± 88 cells/well
[2]; 30 µM
  Decrease of MYPT1 phosphorylation (ELISA): ~80%
[2]; 100 µM
  Decrease of MYPT1 phosphorylation (ELISA): more than 80%
[2]; control levels again after 24 hr of treatment
  Duration of downregulation of MYPT1 phosphorylation (western blot): over 12 hr
mouse-derived OPCs
  MBP and PLP mRNA: increased significantly
